Measured values: patent US9700632B2, “Dendrimers, conjugates and methods thereof” (Centre for BioSeparation Technology—VIT, priority 2012, dated 2017)
Converted amounts (≈) assume the structure as drawn.

Experiments:
[1] = system: HCT-15 human colon cancer cells; experiment: cells; conditions: HCT-15, 48 h, read-out: IC50 HCT-15
Description: Cells are incubated for 48 hr with different equivalent doxorubicin concentrations and IC50 values in terms of doxorubicin were calculated using MTT assay.

[2] = system: PC3 prostate cancer cells; experiment: cells; conditions: Homo sapiens, PC-3, 48 h, read-out: IC50 PC3
[3] = system: PC3 cells; experiment: MTT cytotoxicity assay of lupeol and dendrimer-lupeol conjugates; assay type: cell-based; conditions: Homo sapiens, PC-3, 48 h, read-out: percentage inhibition (cytotoxic effect, MTT)
Description: Human prostate cancer cells (PC-3 cells) are obtained from NCCS, Pune, India. The cells are grown in RPMI 1640 medium supplemented with 10% of bovine fetal serum and antibiotics (100 IU of penicillin/[…] of streptomycin). The cells are maintained in a 25 cm^2 T-flask and incubated at 37° C. under 5% CO2 in a humidified atmosphere. The cell viability is measured by staining the cells with trypan blue and counted in a haemocytometer under a light microscope.
The assay is performed in triplicates.
The cytotoxicity is quantitatively estimated by a non-radioactive, colorimetric assay system using a tetrazolium salt, 3-[4,5-dimethylthiazol-2-yl]-2,5-diphenil-tetrazolium bromide (MTT).
The cytotoxic effect of lupeol and the dendrimer lupeol conjugate is determined using PC3 cells. […] Doxorubicin is used as positive control for each experiment. […] This clearly showcases that the increase in cytotoxic activity of the dendrimer-lupeol conjugate is not due to the dendrimer or lupeol alone but because of the conjugate of dendrimer and lupeol.

| IC50 [1] [µg/mL] | IC50 [2] [µg/mL] | Structure (SMILES) | inhibition at 10 µg/mL [3] [%] |
| --- | --- | --- | --- |
| 4.77 (≈ 8.78 µM) | 5.13 (≈ 9.45 µM) | COc1cccc2c1C(=O)c1c(O)c3c(c(O)c1C2=O)C[C@@](O)(C(=O)CO)C[C@@H]3O[C@H]1C[C@H](N)[C@H](O)[C@H](C)O1 [Free doxorubicin, doxorubicin] | – |
| – | – | C=C(C)[C@@H]1CC[C@]2(C)CC[C@]3(C)[C@H](CC[C@@H]4[C@@]5(C)CC[C@H](O)C(C)(C)[C@@H]5CC[C@]43C)[C@@H]12 [free lupeol, lupeol] | 7.74 |
